Where “and” joins values, the source holds several entries; their conditions need not be identical. Equal entries are not always repeated.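 Where inhibition never reached the appropriate level, the endpoint shown equals the highest concentration tested. Otherwise, values were interpolated linearly from a five-concentration, 48-hour dose response in 96-well plates. Here, GI50 denotes the concentration required for 50% inhibition of growth. TGI is the concentration that stops growth completely.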
Tested on: MDA-MB-468 breast
Assay: inhibition of tumour cell growth, NCI panel, 48 h

O=[N+]([O-])c1cc([N+](=O)[O-])c(NN=C(c2ccc(O)cc2)c2ccc(O)cc2)cc1Cl
GI50: 247 nM
TGI: 550 nM

Oc1ccc(OCCOc2ccc(O)cc2)cc1
GI50: 32700 nM
TGI: > 100000 nM

COc1cc(Nc2cc(O)c3c(=O)cc(-c4ccccc4)oc3c2)cc(OC)c1
GI50: 279 nM

O=C1C(=O)/C(=C/c2ccccc2)CCCCCC/C1=C/c1ccccc1
GI50: 3620 nM
TGI: 17700 nM

COc1cc(Nc2ncc3c(C)nc(-c4cccc(C(F)(F)F)c4)n3n2)cc(OC)c1OC
GI50: 2810 nM
TGI: 5980 nM

Fc1ccc(-c2cc3nc(C(Cl)Cl)nc(-c4cccs4)n3n2)cc1
GI50: 219 nM
TGI: 666 nM

CN(C)CCCNc1nc2ccccc2c2c(=O)c3cc(F)ccc3sc12
GI50: 675 nM
TGI: 2160 nM

O=C1NC(=O)/C(=C/c2ccc3ncccc3c2)S1
GI50: 9280 nM
TGI: > 25000 nM

CCN(Cc1cc(F)cc(F)c1)c1ccc(CO)c(Cl)c1
GI50: 18.7 nM
TGI: 50.5 nM

COc1cc(/C=C/[N+](=O)[O-])c([N+](=O)[O-])cc1OC
GI50: 1020 nM
TGI: 2300 nM

COc1cc(C(=O)/C=C/c2c(-c3cccs3)nc3sccn23)cc(OC)c1OC
GI50: 930 nM
TGI: 2890 nM

COc1cc(/C=C/c2cc(/C=C/c3ccc(O)c(OC)c3)n(C(N)=O)n2)ccc1O
GI50: 298 nM
TGI: 1520 nM

COc1ccc([C@H]2[C@H](O)C(=O)N2c2cc(OC)c(OC)c(OC)c2)cc1
GI50: < 10 nM
TGI: > 100000 nM

O=C(c1ccc(Oc2ccccc2)cc1Cl)c1c[nH]c2ncnc(N[C@@H]3CC[C@@H](CO)OC3)c12
GI50: 1010 nM
TGI: 3730 nM

COC1=C(C)C(=O)N2[C@@H]1[C@H](c1ccccc1)OC21C=CC(=O)C=C1
GI50: 2540 nM
TGI: 9240 nM

CO[C@H]1/C=C/[C@@](C)(O)/C=C/C(=O)O[C@H](C)[C@@H](C)CC/C=C/1C
GI50: 8450 nM
TGI: 31000 nM

COc1cc(/C=C/c2cc(/C=C/c3ccc(O)c(OC)c3)n(C(=O)Cc3ccccc3)n2)ccc1O
GI50: 1170 nM
TGI: 4580 nM

N#Cc1cc(-c2ccnc(Nc3ccc(NC(=O)CCl)cc3)n2)ccc1N1CCCC1
GI50: 3400 nM
TGI: 7130 nM

CC(c1ccccc1)N1C(=O)CSC1=S (stereo not drawn)
GI50: 303 nM
TGI: > 100000 nM

COc1cc(C2CC(c3ccc(SC)cc3)=NN2C(C)=O)cc(OC)c1OC (stereo not drawn)
GI50: 3710 nM
TGI: 26200 nM

COc1ccc(-c2cc(C(=O)N3N=C(c4ccc(N)cc4)CC3c3ccc(Cl)cc3)c3ccccc3n2)cc1 (stereo not drawn)
GI50: 2950 nM
TGI: > 100000 nM

COc1cc(C=C2c3ccccc3C(=O)c3ccccc32)ccc1OCCCCOc1cc2c(cc1OC)C(=O)N1CCCC1C=N2 (stereo not drawn)
GI50: 287 nM
TGI: 1190 nM

CO[C@@H](C)Cn1c(=O)n(C)c2cnc3ccc(-c4cncc(C(C)(C)O)c4)cc3c21
GI50: 132 nM and 60.1 nM
TGI: 661 nM and 472 nM

CCC(=O)OCC1OC(n2cnc3c(=S)nc(N)[nH]c32)C(OC(=O)CC)C1OC(=O)CC (stereo not drawn)
GI50: 1180 nM
TGI: 7450 nM

Cn1cc(-c2csc(-c3c[nH]c4ccc(F)cc34)n2)c2cccnc21
GI50: 1410 nM
TGI: 5240 nM

CCCCN1C=CCN(CCCC)C1
GI50: 18600 nM
TGI: 61300 nM

NCCCNc1nc2ccccc2c2c(=O)c3cccc(F)c3sc12
GI50: 1620 nM
TGI: 3240 nM

CCOC(=O)c1cc(C(=O)c2cc(OC)cc(OC)c2)n2nc(C)ccc12
GI50: 297 nM
TGI: > 100000 nM

CCCCc1ccc(NS(=O)(=O)c2cc3c4c(c2)CCN4C(=O)CC3)cc1
GI50: 4500 nM
TGI: 94200 nM

Cc1ccc(NC(=O)c2ccc(CN3CC[C@H](N(C)C)C3)c(C(F)(F)F)c2)cc1Nc1nccc(-c2cncnc2)n1
GI50: 5050 nM and 7370 nM
TGI: 18400 nM and > 10000 nM

O=C(/C=C/c1c(-c2ccccc2)[nH]c2ccccc12)S(=O)(=O)c1ccccc1
GI50: 1980 nM
TGI: 8750 nM

COc1cc2c(Oc3ccc4[nH]c(C)cc4c3F)ncnc2cc1OCCCN1CCCC1
GI50: 1320 nM
TGI: 3060 nM

Reference: PubChem BioAssay (NCI)
